Source: patent US20240317760A1, “TRK KINASE INHIBITOR COMPOUND AND USE THEREOF” (HENAN MEDINNO PHARMACEUTICAL TECHNOLOGY CO., LTD., priority 2021, published 2024)

Experiments:
Assay type in all cases: biochemical
TRKA = molecular target: T1, TRKA (Homo sapiens, UniProt P04629); test: Determination of inhibitory activity against TRKA kinase (ADP-Glo Kinase Assay); details: ATP 5 μM, Poly (4:1 Glu, Tyr) Peptide 0.03 mg/ml
T1 construct: purchased Carna 08-186
Description: (§1) Assay: Determination of Inhibitory Activity Against TRKA/B/C Kinases
(§2) 1× volume of 5× kinase reaction buffer and 4× volume of water; 5 mM MgCl2; and 1 mM DTT.
(§3) • 1). Gradiently diluting a compound 4-fold in a dilution plate with DMSO, with a starting compound concentration of 1000 nM. • 2). Diluting the compound 50-fold into 1× kinase reaction buffer and shaking it on a shaker for 20 minutes. • 3). Formulating 2× kinase with 1× of enzyme reaction buffer. • 4). Adding 2 μl kinase (formulated in step 3) to each well of the reaction plate. • 5). Adding 1 μl of the compound diluted in buffer to each well, sealing the plate with a sealing membrane and centrifuging the plate at 1000 g for 30 seconds and leaving it at room temperature for 10 minutes. • 6). Formulating 4×ATP & sub mixture with 1× enzyme reaction buffer and adding 1 μl of 4×ATP & sub mixture to the reaction plate. • 7). Sealing the plate with a sealing membrane and centrifuging the plate at 1000 g for 30 seconds and allowing it to react at room temperature for 60 minutes. • 8). Transferring 4 μl of ADP-Glo to 384 reaction plate and centrifuging the plate at 1000 rpm/min for 1 min, and then incubating it at 25° C. for 40 min. • 9). Transferring 8 μl of Detection solution to 384 reaction plate and centrifuging the plate at 1000 rpm/min for 1 min and incubating it at 25° C. for 40 min. • 10) Reading the RLU (Relative luminescence unit) signal using a Biotek multifunctional plate reader. The signal intensity was used to characterize the activity degree of kinase.
(§4) The IC50 (half inhibition concentration) of a compound was obtained using the following non-linear fitting equation, wherein data analysis was performed using Graphpad 6.0 software.
(§5) Y=Bottom+(Top−Bottom)/(1+10^((Log IC50−X)*Hill Slope)) • X: log value of compound concentration; and Y: inhibition rate (% inhibition)
(§6) Data were exported from Biotek and analyzed manually. The ratios were converted to inhibition rates and IC50 was calculated by Prism GraphPad 6.0 from the inhibition rates. IC50 was calculated again by the ratios to verify accuracy of the results.

TRKB = molecular target: T2, TRKB (Homo sapiens, UniProt Q16620); test: Determination of inhibitory activity against TRKB kinase (ADP-Glo Kinase Assay); details: ATP 20 μM, Poly (4:1 Glu, Tyr) Peptide 0.03 mg/ml
T2 construct: purchased SignalChem N17-11G
T2 sequence (Q16620 32-822): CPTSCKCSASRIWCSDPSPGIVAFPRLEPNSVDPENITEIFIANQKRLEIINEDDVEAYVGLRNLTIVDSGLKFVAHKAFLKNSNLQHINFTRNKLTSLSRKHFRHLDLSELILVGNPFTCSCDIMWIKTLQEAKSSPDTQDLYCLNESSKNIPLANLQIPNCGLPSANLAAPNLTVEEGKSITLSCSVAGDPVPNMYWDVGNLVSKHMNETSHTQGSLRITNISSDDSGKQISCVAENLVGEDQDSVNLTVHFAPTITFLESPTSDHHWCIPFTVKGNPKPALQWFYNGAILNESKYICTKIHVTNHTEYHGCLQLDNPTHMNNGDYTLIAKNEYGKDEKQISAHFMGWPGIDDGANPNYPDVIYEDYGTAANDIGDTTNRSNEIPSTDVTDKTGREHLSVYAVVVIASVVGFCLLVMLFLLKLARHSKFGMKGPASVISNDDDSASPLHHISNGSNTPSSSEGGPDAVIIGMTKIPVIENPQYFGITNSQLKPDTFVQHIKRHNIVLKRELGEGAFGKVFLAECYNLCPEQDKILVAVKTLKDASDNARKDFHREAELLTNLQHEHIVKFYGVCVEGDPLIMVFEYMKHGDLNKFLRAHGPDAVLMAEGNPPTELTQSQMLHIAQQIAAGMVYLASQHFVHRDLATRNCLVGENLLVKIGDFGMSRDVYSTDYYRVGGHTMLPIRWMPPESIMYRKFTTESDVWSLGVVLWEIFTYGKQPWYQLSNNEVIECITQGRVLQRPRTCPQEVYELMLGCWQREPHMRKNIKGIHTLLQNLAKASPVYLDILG
Description: as §1, §2, §3, §4, §5, §6

TRKC = molecular target: T3, TRKC (Homo sapiens, UniProt Q16288); test: Determination of inhibitory activity against TRKC kinase (ADP-Glo Kinase Assay); details: ATP 5 μM, Poly (4:1 Glu, Tyr) Peptide 0.03 mg/ml
T3 construct: purchased Carna 08-196
T3 sequence (Q16288 32-839): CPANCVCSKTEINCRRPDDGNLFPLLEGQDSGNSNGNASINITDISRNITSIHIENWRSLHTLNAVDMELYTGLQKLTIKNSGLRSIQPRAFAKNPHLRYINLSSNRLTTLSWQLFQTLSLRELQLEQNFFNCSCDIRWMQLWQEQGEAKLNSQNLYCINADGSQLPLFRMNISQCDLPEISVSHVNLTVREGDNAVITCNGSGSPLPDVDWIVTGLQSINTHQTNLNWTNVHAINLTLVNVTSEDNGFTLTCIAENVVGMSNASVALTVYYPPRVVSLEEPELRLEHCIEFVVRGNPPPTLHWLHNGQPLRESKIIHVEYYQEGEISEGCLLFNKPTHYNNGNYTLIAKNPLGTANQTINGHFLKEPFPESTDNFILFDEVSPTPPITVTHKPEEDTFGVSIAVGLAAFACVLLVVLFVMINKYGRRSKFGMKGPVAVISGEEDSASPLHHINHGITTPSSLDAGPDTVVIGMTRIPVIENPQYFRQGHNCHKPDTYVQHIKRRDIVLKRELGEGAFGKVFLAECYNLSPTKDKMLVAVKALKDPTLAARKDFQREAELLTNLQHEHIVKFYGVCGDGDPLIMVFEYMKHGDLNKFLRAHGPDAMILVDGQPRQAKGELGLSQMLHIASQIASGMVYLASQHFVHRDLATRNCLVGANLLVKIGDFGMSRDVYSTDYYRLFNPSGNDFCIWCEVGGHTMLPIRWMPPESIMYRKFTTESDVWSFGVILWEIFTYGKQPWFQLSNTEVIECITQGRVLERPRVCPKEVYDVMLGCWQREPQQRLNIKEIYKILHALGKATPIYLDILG
Description: as §1, §2, §3, §4, §5, §6

T1 sequence (P04629 33-796): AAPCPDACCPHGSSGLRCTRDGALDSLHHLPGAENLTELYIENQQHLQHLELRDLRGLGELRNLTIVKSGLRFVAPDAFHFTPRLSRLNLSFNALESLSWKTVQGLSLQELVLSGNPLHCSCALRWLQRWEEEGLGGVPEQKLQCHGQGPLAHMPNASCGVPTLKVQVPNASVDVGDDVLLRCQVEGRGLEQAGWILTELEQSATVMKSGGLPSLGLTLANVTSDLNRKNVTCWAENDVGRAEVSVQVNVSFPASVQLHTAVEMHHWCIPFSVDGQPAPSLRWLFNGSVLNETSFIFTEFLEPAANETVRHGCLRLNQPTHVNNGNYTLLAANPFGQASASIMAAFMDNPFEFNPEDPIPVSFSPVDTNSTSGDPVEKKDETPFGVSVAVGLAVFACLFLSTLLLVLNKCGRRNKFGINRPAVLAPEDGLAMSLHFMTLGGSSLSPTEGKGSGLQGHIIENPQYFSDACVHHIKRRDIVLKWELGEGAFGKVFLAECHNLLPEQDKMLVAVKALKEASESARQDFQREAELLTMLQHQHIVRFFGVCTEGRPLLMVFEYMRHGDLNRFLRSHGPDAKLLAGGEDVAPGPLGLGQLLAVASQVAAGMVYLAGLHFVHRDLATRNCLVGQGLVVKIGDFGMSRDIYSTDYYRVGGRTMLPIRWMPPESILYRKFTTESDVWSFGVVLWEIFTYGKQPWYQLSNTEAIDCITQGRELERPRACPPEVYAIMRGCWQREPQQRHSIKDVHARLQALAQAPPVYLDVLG

| Structure (SMILES) | IC50 (TRKA) [nM] | IC50 (TRKB) [nM] | IC50 (TRKC) [nM] |
| --- | --- | --- | --- |
| CC(Oc1ccc2[nH]nc(-c3nc4c([nH]3)CN(C(=O)N(C)C)C4)c2c1)c1cc(F)cc(F)c1 (stereo not drawn) [Example 5, 2-(5-(1-(3,5-difluorophenyl)ethoxy)-1H-indazol-3-yl)-N,N-dimethyl-4,6-dihydropyrrolo[3,4-d]imidazole-5(1H) formamide] | 2.3 | 2.1 | 3.1 |
| CC(Oc1ccc2[nH]nc(-c3nc4c([nH]3)CN(C3CCN(C)CC3)CC4)c2c1)c1cc(F)cc(F)c1 (stereo not drawn) [Example 8, 2-(5-(1-(3,5-difluorophenyl)ethoxy)-1H-indazol-3-yl)-5-(1-methylpiperidin-4-yl)-4,5,6,7-tetrahydro-3H-imidazo[4,5-c]pyridine] | 0.7 | 2.8 | 1.6 |
| CC(Oc1ccc2[nH]nc(-c3nc4c([nH]3)CN(C(=O)OC3CCN(C)CC3)C4)c2c1)c1cc(F)cc(F)c1 (stereo not drawn) [Example 10, 1-Methylpiperidin-4-yl-2-(5-(1-(3,5-difluorophenyl)ethoxy)-1H-indazol-3-yl)-4,6-dihydropyrrolo[3,4-d]imidazole-5(1H)-carboxylate] | 0.77 | 2.5 | 1.3 |
| CC(Nc1ccc2[nH]nc(-c3nc4c([nH]3)CNC4)c2c1)c1cc(F)cc(F)c1 (stereo not drawn) [Example 1] | 1.8 | 2.8 | 5.5 |
| CC(Nc1ccc2[nH]nc(-c3nc4c([nH]3)CN(CC3CCNCC3)C4)c2c1)c1cc(F)cc(F)c1 (stereo not drawn) [Example 11, N-(1-(3,5-difluorophenyl)ethyl)-3-(5-(piperidin-4-ylmethyl)-1,4,5,6-tetrahydropyrrolo[3,4-d]imidazol-2-yl)-1H-indazol-5-amine] | 1.4 | 2.2 | 2.4 |
| CC(Oc1ccc2[nH]nc(-c3nc4c([nH]3)CN(C(=O)C3CCN(C)CC3)C4)c2c1)c1cc(F)cc(F)c1 (stereo not drawn) [Example 7, (2-(5-(1-(3,5-difluorophenyl)ethoxy)-1H-indazol-3-yl)-4,6-dihydropyrrolo[3,4-d]imidazol-5(1H)-yl)(1-methylpiperidin-4-yl)ketone] | 1.4 | 3.4 | 1.3 |
| CC(Oc1ccc2[nH]nc(-c3nc4c([nH]3)CN(CC3CCN(C)C3)C4)c2c1)c1cc(F)cc(F)c1 (stereo not drawn) [Example 20] | 1.5 | 4 | 2.9 |

Next, values leading:

| IC50 (TRKA) [nM] | IC50 (TRKB) [nM] | IC50 (TRKC) [nM] | Structure (SMILES) |
| --- | --- | --- | --- |
| 1.6 | 0.83 | 1.7 | CC(Oc1ccc2[nH]nc(-c3nc4c([nH]3)CN(C3CCCC(N(C)C)C3)C4)c2c1)c1cc(F)cc(F)c1 (stereo not drawn) [Example 45, 3-(2-(5-(1-(3,5-difluorophenyl)ethoxy)-1H-indazol-3-yl)-4,6-dihydropyrrolo[3,4-d]imidazol-5(1H)-yl)-N,N-dimethyl cyclohexan-1-amine] |
| 0.94 | 2 | 1.2 | CC(Oc1ccc2[nH]nc(-c3nc4c([nH]3)CN(C(=O)OC3CCN(C)C3)C4)c2c1)c1cc(F)cc(F)c1 (stereo not drawn) [Example 30, 1-Methylpyrrolidin-3-yl 2-(5-(1-(3,5-difluorophenyl)ethoxy)-1H-indazol-3-yl)-4,6-dihydropyrrolo[3,4-d]imidazole-5(1H)-carboxylate] |
| 1.9 | 1.4 | 2.9 | CCN1CCCC(N2Cc3nc(-c4n[nH]c5ccc(OC(C)c6cc(F)cc(F)c6)cc45)[nH]c3C2)C1 (stereo not drawn) [Example 43, 5-(1-(3,5-Difluorophenyl)ethoxy)-3-(5-(1-ethylpiperidin-3-yl)-1,4,5,6-tetrahydropyrrolo[3,4-d]imidazol-2-yl)-1H indazole] |
| 1 | 1.1 | 1.5 | CC(Oc1ccc2[nH]nc(-c3nc4c([nH]3)CN(CC3CCCN3)C4)c2c1)c1cc(F)cc(F)c1 (stereo not drawn) [Example 42, 5-(1-(3,5-Difluorophenyl)ethoxy)-3-(5-(pyrrolidin-2-ylmethyl)-1,4,5,6-tetrahydropyrrolo[3,4-d]imidazol-2-yl)-1H-indazole] |
| 4.5 | 4.2 | 6.1 | CCC(Oc1ccc2[nH]nc(-c3nc4c([nH]3)CN(CC3CCN(C)CC3)C4)c2c1)c1cc(F)cc(F)c1 (stereo not drawn) [Example 48, 5-(1-(3,5-Difluorophenyl)propoxy)-3-(5-((1-methylpiperidin-4-yl)methyl)-1,4,5,6-tetrahydropyrrolo[3,4-d]imidazol-2-yl)-1 H-indazole] |
| 0.53 | 3.9 | 1.4 | CC(Oc1ccc2[nH]nc(-c3nc4c([nH]3)CN(CC3(C)CCN(C(C)C)CC3)C4)c2c1)c1cc(F)cc(F)c1 (stereo not drawn) [Example 28] |
| 0.46 | 4.1 | 1.2 | CC(Oc1ccc2[nH]nc(-c3nc4c([nH]3)CN(C(=O)OC3CCCN(C)C3)C4)c2c1)c1cc(F)cc(F)c1 (stereo not drawn) [Example 33, 1-Methylpiperidin-3-yl 2-(5-(1-(3,5-difluorophenyl)ethoxy)-1H-indazol-3-yl)-4,6-dihydropyrrolo[3,4-d]imidazole-5(1H)-carboxylate] |
| 1.4 | 0.64 | 1.8 | CC(Oc1ccc2[nH]nc(-c3nc4c([nH]3)CN(C3CC(N(C)C)C3)C4)c2c1)c1cc(F)cc(F)c1 (stereo not drawn) [Example 44] |
| 0.42 | 3.1 | 3.5 | CC(Oc1ccc2[nH]nc(-c3nc4c([nH]3)CN(CC3CCN(C5CCC5)CC3)C4)c2c1)c1cc(F)cc(F)c1 (stereo not drawn) [Example 27, 3-(5-((1-Cyclobutylpiperidin-4-yl)methyl)-1,4,5,6-tetrahydropyrrolo[3,4-d]imidazol-2-yl)-5-(1-(3,5-difluorophenyl)ethoxy)-1H-indazole] |
| 1.5 | 5.3 | 2.2 | CC(Oc1ccc2[nH]nc(-c3nc4c([nH]3)CN(CC3CCCNC3)C4)c2c1)c1cc(F)cc(F)c1 (stereo not drawn) [Example 24, 5-(1-(3,5-Difluorophenyl)ethoxy)-3-(5-(piperidin-3-ylmethyl)-1,4,5,6-tetrahydropyrrolo[3,4-d]imidazol-2-yl)-1H-indazole] |
| 1.8 | 6.8 | 1.6 | CC(Oc1ccc2[nH]nc(-c3nc4c([nH]3)CN(CC3CCCCN3)C4)c2c1)c1cc(F)cc(F)c1 (stereo not drawn) [Example 25, 5-(1-(3,5-Difluorophenyl)ethoxy)-3-(5-(piperidin-2-ylmethyl)-1,4,5,6-tetrahydropyrrolo[3,4-d]imidazol-2-yl)-1H-indazole] |
